Data published in PMC10484922, “Discovery of a selective and biologically active low-molecular weight antagonist of human interleukin-1β” (Nature Communications, 2023).
Where “and” joins values, the source holds several entries; their conditions need not be identical. Equal values may be shown once. Read-outs that look alike come from different tables or passages of the source. One block for each molecule: values may come before it.

Key:
[1] = molecular target: T1, IL-1β (Homo sapiens, UniProt P01584); test: SPR binding of compounds to immobilized hIL-1β; design: Mature hIL-1β was expressed in Escherichia coli; made in house; host or cells: Escherichia coli BL21 (DE3), pET17b
T1 sequence (P01584 117-269): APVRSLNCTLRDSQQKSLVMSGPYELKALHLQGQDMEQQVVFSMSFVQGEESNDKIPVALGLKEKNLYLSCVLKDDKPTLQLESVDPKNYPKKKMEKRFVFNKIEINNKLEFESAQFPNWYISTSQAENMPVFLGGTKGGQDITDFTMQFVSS
Experimental: All SPR experiments were performed with an SPR-32 instrument (Bruker Daltonics SPR, Hamburg, Germany). SPR chips were from XanTec bioanalytics GmbH (Düsseldorf, Germany).
C-terminally avi-tagged hIL-1β protein was immobilized onto a SAHC200M chip with a neutravidin-coated surface. Immobilization was performed with a protein injection of 0.02 mg/ml IL-1β diluted in PBS pH 7.5 (Gibco 70011-036, 10×), 0.05% Tween-20 for 5 min at 10 μl/min. The running buffer for binding studies of compounds was PBS pH 7.4, 0.05% Tween-20, and 2% DMSO. For the correction of small DMSO variations between samples, injections of 6 solvent samples ranging from 1% to 3% DMSO were run. Compound measurements were performed in MICK mode (multiple injection cycles kinetic) with a dose–response of 10 concentrations. Dissociation constants for compounds (KD) were obtained by determining steady-state fit that followed the 1:1 Langmuir model.
Data analysis was performed with the Sierra Analyzer 3.4.0 software from Bruker. Signal intensities were corrected for nonspecific binding to the surface by subtracting intensities from the reference surface from those of the hIL-1β surfaces (first reference subtraction) and by subtracting the buffer injection (second reference subtraction). KD values were carried out by determining a reporting point close to the end of the injection, used for steady-state fit, in addition to a kinetic fit delivering kon- and koff-values; both fitting models followed the 1:1 Langmuir equation.
Supplementary Figure 3. De termination of binding af fi nit ie s for se l ec ted ana l ogues of 1 by SPR. a - d Gr ap hs of exemplary experimen ts are given , where the sat urat ion of hI L-1b immobil ized on a chip was monitored at various concentrations of compound 3, 12, 10, and 11, respectively. Th e saturati on reached at equ ilibri um (insert) was plo tt ed versus the admini stered concentration and the equ ilibri um bin ding constant was derived from a non-li near lea st square fitting routine. e equ ilibri um and f kinetic bin ding of (S)-2 to IL-1b (kon = 1. 15 x 105 M-1 s-1 and koff = 0. 12 s-1).

[2] = molecular target: T1, IL-1β; test: TR-FRET IL-1β/hIL-1R1 receptor displacement assay; format: biochemical
Experimental: After 1 h incubation at room temperature, hIL-1R1 (1–332; Alexa 647 labeled; 50 nM final concentration) and anti-His-Europium W1024 (Perkin Elmer; Cat.No. AD0401, 1 nM final concentration) were added to a final volume of 10 μl per well. […] All experiments were run in triplicates.

[3] = tested on: normal human dermal fibroblasts stimulated with hIL-1β; test: Human fibroblast IL-6 release assay, hIL-1β stimulated; format: cell-based; design: IL-6, average / inhibition, replicates of EXP1, EXP2, EXP3 / inhibition, Mean / IL-1beta (mean, SD): mean readout (IL-6 release): unit not given here; details: for IL-6, average / IL-6, curve fit: per experiment; for inhibition, Mean / inhibition, replicates of EXP1, EXP2, EXP3: Figure 3b; for Mean OD (OD 450nm) / IL-1beta (mean, SD): mean readout (IL-6 release): Figure 3c; for Mean OD (OD 450nm): compound 500 nM; for IL-1beta (mean, SD): mean readout (IL-6 release): compound @ 50uM
Experimental: We used HEK-Blue™ IL-1β cells that respond specifically to IL-1 (# hkb-il1b, InvivoGen). These cells can detect IL-1α and IL-1β, as these cytokines bind to the same receptor, IL-1R1. They express a Seap reporter gene under the control of the IFN-β minimal promoter fused to five NF-kappaB and five AP-1 binding sites. Thirty microliters (300,000 cells/ml) per well of a 384-well plate were plated overnight. Cells were then stimulated with graded concentrations of cytokines (hIL-1α or hIL-1β) in the absence or presence of canakinumab (Ilaris®, ILARI LYVI 150MG 22GLW.012, batch U003 0409)[22], anakinra (Kineret®, 100 mg/0.67 ml injectable solution, Sobi)[23], or compound (S)-2 (compounds were pre-mixed for 1 h with the cytokine prior to addition to cells) and further incubated overnight before assessment of Seap activity.
Normal human dermal fibroblasts (NHDF) from Clonetics^TM (LONZA, Cat # CC-2509 (NHDF-Neo), Lot # 0000234242, used at passage ≤14) were seeded at a density of 5000 cells/well in 100 μL of culture medium using 96-well plates (flat bottom, TCT). Treatment with cytokines/compounds was performed as described above. Cells were incubated for another 6 h and were subsequently spun down (320g/3 min). IL-6 was measured in the supernatant by ELISA (BioLegend, # 430503) or HTRF (Cisbio, #62HIL06PEH).

[4] = source data, read-out: SPR Kd, Mean
[5] = source data, read-out: SPR Kd, individual experiments (Exp1-5)
[6] = steady-state fit, 1:1 Langmuir, read-out: SPR KD
[7] = Il1b wt, read-out: TR-FRET IC50, individual experiments
[8] = Homo sapiens, Fibroblast, 6 h, human dermal fibroblasts, hIL-1β, 6 h, read-out: IL-6 release IC50
[9] = source data, read-out: IL-6 IC50, individual experiments
[10] = IL-1beta, 0.01 uM, per experiment
[11] = IL-1beta, 0.02 uM, per experiment
[12] = IL-1beta, 0.1 uM, per experiment
[13] = IL-1beta, 0.2 uM, per experiment
[14] = IL-1beta, 0.6 uM, per experiment
[15] = IL-1beta, 63 uM, per experiment
[16] = (S)-2 concentration 0.05 (unit not given)
[17] = (S)-2 concentration 0.4 (unit not given)
[18] = (S)-2 concentration 1 (unit not given)
[19] = (S)-2 concentration 4 (unit not given)
[20] = (S)-2 concentration 11 (unit not given)
[21] = (S)-2 concentration 33 (unit not given)
[22] = (S)-2 concentration 100 (unit not given)

Compound: O=C(O)c1ccccc1-c1ccc(O)c(C2(O)C(=O)Nc3cc(Cl)ccc32)c1 (centres unmarked) [Compound 11]
Kd [1, 4]: 31.8 µM
Kd [1, 5]: 34 µM and 37 µM and 36 µM and 26.3 µM and 25.7 µM
Kd [1, 6]: 32 ± 5 µM
IC50 [2, 7]: 140 µM and 130 µM and 138 µM and 97.9 µM and 136 µM and 106 µM and 133 µM
IC50 ([2]; read-out: TR-FRET IL-1β IC50): 126 ± 17 µM
IC50 ([2]; summary, read-out: TR-FRET IL-1beta IC50, AVRG): 126 µM
IL-6, average ([3]; 99 uM): 38.1953 and 26.9144
IL-6, curve fit ([3]; 99 uM): 38.6393 and 27.5847
IL-6, average ([3]; 300 uM): 100.608 and 103.181
IL-6, curve fit ([3]; 300 uM): 97.9064 and 99.9483
IC50 [3, 8]: 112 ± 1 µM
IC50 ([3]; Homo sapiens, Fibroblast, source data, read-out: IL-6 IC50, individual experiments): 111 µM
IC50 [3, 9]: 113 µM

koff ([1]; kinetic fit): 0.12 s⁻¹
kon ([1]; kinetic fit): 120000 M⁻¹ s⁻¹
Kd [1, 4]: 1.1 µM
Kd [1, 5]: 1.1 µM (2×) and 1 µM
Kd [1, 6]: 1.1 µM
TR-FRET calculated % inhibition [2, 10]: -3% and -1% and 0%
TR-FRET raw data [2, 10]: 90 and 159 and 163 and 162 and 161
TR-FRET calculated % inhibition [2, 11]: -1% and 1% and 0%
TR-FRET raw data [2, 11]: 89 and 157 and 158 and 161
TR-FRET calculated % inhibition [2, 12]: 1% and 3%
TR-FRET raw data [2, 12]: 87 and 156 and 155 and 157
TR-FRET calculated % inhibition [2, 13]: 10% and 7%
TR-FRET raw data [2, 13]: 78 and 144 and 149 and 146 and 151
inhibition at 0.2 µM ([2]; IL-1beta, 0.2 uM, per experiment, read-out: TR-FRET calculated % inhibition): 13%
TR-FRET calculated % inhibition [2, 14]: 20% and 23% and 21%
TR-FRET raw data [2, 14]: 67 and 130 and 131 and 128
inhibition at 0.6 µM ([2]; IL-1beta, 0.6 uM, per experiment, read-out: TR-FRET calculated % inhibition): 28%
TR-FRET calculated % inhibition ([2]; IL-1beta, 2 uM, per experiment): 40% and 39%
inhibition at 2 µM ([2]; IL-1beta, 2 uM, per experiment, read-out: TR-FRET calculated % inhibition): 55%
TR-FRET calculated % inhibition ([2]; IL-1beta, 6 uM, per experiment): 61% and 62% and 60%
inhibition at 6 µM ([2]; IL-1beta, 6 uM, per experiment, read-out: TR-FRET calculated % inhibition): 72%
TR-FRET calculated % inhibition ([2]; IL-1beta, 20 uM, per experiment): 80% and 78% and 79%
inhibition at 20 µM ([2]; IL-1beta, 20 uM, per experiment, read-out: TR-FRET calculated % inhibition): 88%
TR-FRET calculated % inhibition [2, 15]: 92%
TR-FRET raw data [2, 15]: 16 and 27 and 29 and 28
inhibition at 63 µM ([2]; IL-1beta, 63 uM, per experiment, read-out: TR-FRET calculated % inhibition): 95%
TR-FRET raw data ([2]; IL-1beta, 200 uM, per experiment): 12 and 16 and 17
inhibition at 200 µM ([2]; IL-1beta, 200 uM, per experiment, read-out: TR-FRET calculated % inhibition): 100%
IC50 [2, 7]: 2.1 µM and 4.2 µM and 4.6 µM and 4.4 µM and 4.7 µM
IC50 ([2]; read-out: TR-FRET IL-1β IC50): 4 ± 1.1 µM
Compound: Cc1ccc2c(c1)NC(=O)[C@@]2(c1cn[nH]c1)c1cc(-c2ccc(C(=O)O)cc2C(=O)O)ccc1O [Compound (S)-2]
block of hIL-1β driven IL-6 release [3]: could inhibit the response to hIL-1β
inhibition, Mean [3, 16]: 11.8111
inhibition, replicates of EXP1, EXP2, EXP3 [3, 16]: 1.099 and 7.654 and 32.9874 and 11.239 and 6.325 and 15.536 and -5.489 and 15.493 and 21.4551
inhibition, replicates of EXP1, EXP2, EXP3 ([3]; (S)-2 concentration 0.1 (unit not given)): 18.345 and 33.8012 and 24.896 and 0.607 and 18.6036 and 23.695 and -10.879 and 23.6096
inhibition, Mean [3, 17]: 16.1795
inhibition, replicates of EXP1, EXP2, EXP3 [3, 17]: 6.922 and -13.568 and 28.7773 and 15.933 and -2.853 and 20.6147 and 21.633 and -16.264 and 22.2291
inhibition, Mean [3, 18]: 20.6552
inhibition, replicates of EXP1, EXP2, EXP3 [3, 18]: 28.445 and 6.394 and 37.2847 and 8.462 and 8.741 and 33.0478 and 30.776 and 11.643 and 21.1029
inhibition, Mean [3, 19]: 41.6476
inhibition, replicates of EXP1, EXP2, EXP3 [3, 19]: 30.652 and 40.964 and 60.1425 and 37.001 and 32.643 and 49.8155 and 34.125 and 37.671 and 51.8132
inhibition, Mean [3, 20]: 62.727
inhibition, replicates of EXP1, EXP2, EXP3 [3, 20]: 59.128 and 61.883 and 67.9669 and 57.955 and 65.648 and 69.7834 and 54.055 and 63.991 and 64.1355
inhibition, Mean [3, 21]: 85.133
inhibition, replicates of EXP1, EXP2, EXP3 [3, 21]: 83.359 and 83.395 and 85.1881 and 82.704 and 84.749 and 90.3418 and 80.717 and 88.643 and 87.1001
inhibition, Mean [3, 22]: 92.537
inhibition, replicates of EXP1, EXP2, EXP3 [3, 22]: 91.3 and 94.175 and 93.9868 and 93.148 and 93.985 and 90.8655 and 91.665 and 91.77 and 91.9373
Mean OD (OD 450nm) ([3]; hu IL-1b 0 pg/mL): 0.033
IL-1beta (mean, SD): mean readout (IL-6 release) ([3]; hu IL-1b 0 pg/mL): 0
Mean OD (OD 450nm) ([3]; hu IL-1b 40 pg/mL): 0.067
IL-1beta (mean, SD): mean readout (IL-6 release) ([3]; hu IL-1b 40 pg/mL): 0
Mean OD (OD 450nm) ([3]; hu IL-1b 80 pg/mL): 0.219
IL-1beta (mean, SD): mean readout (IL-6 release) ([3]; hu IL-1b 80 pg/mL): 866.8
Mean OD (OD 450nm) ([3]; hu IL-1b 120 pg/mL): 0.313
IL-1beta (mean, SD): mean readout (IL-6 release) ([3]; hu IL-1b 120 pg/mL): 1562
Mean OD (OD 450nm) ([3]; hu IL-1b 160 pg/mL): 0.45
IL-1beta (mean, SD): mean readout (IL-6 release) ([3]; hu IL-1b 160 pg/mL): 2574.8
Mean OD (OD 450nm) ([3]; hu IL-1b 200 pg/mL): 0.463
IL-1beta (mean, SD): mean readout (IL-6 release) ([3]; hu IL-1b 200 pg/mL): 2669.4
IC50 [3, 8]: 7.9 ± 2 µM
IL-6 release IC50 ([3]; human dermal fibroblasts, hIL-1β, 6 h): single digit micromolar range
IC50 [3, 9]: 18.8 µM and 26.2 µM and 7.43 µM and 6.22 µM and 5.77 µM and 5.73 µM and 4.59 µM and 7.91 µM and 8.11 µM and 5.61 µM and 6.38 µM
